The record followed here is ChEMBL document CHEMBL5058646 (2022).

The target of assay [1] is Phosphorylase b kinase gamma catalytic chain, liver/testis isoform (Homo sapiens) (UniProt P15735). Nature of the assay: PHKG2 SGC Tm panel (DSF). The note with it: Compound concentration 20.0 uM.
Assay [2] deals with T1, Zinc finger and BTB domain-containing protein 24 (Homo sapiens) (UniProt O43167).
T1 sequence (whole entry): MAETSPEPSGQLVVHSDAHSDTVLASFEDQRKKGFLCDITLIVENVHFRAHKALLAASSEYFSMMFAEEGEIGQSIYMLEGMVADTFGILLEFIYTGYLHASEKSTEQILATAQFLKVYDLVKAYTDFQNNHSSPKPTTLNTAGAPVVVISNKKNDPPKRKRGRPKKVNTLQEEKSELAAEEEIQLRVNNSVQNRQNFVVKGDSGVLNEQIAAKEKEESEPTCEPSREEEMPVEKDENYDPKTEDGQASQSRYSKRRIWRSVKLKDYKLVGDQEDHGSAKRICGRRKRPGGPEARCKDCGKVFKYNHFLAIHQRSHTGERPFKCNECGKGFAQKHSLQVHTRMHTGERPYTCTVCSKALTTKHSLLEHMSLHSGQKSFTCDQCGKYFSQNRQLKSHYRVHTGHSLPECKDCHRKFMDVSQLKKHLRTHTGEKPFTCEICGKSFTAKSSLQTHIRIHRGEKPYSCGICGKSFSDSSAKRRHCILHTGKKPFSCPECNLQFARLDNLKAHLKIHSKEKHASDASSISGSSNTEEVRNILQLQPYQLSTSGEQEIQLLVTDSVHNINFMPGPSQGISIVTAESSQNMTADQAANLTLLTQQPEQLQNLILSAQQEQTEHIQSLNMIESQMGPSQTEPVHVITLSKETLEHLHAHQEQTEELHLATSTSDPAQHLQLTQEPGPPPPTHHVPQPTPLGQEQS
To be noted: SUD4, Compound concentration 1.0 uM.

The target in assay [3] is Cyclin-dependent kinase-like 1 (Homo sapiens) (UniProt Q00532). Nature of the assay: CDKL1 SGC Tm panel (DSF). The note with it: Compound concentration 20.0 uM.
For assay [4], the target named is STE20-like serine/threonine-protein kinase (Homo sapiens) (UniProt Q9H2G2). In words: SLK SGC Tm panel (DSF). To be noted: Compound concentration 20.0 uM.
In assay [5] the target is D(4) dopamine receptor (Homo sapiens) (UniProt P21917). The note with it: Compound concentration 10.0 uM.
Sequence of D(4) dopamine receptor (Homo sapiens) (P21917 whole entry): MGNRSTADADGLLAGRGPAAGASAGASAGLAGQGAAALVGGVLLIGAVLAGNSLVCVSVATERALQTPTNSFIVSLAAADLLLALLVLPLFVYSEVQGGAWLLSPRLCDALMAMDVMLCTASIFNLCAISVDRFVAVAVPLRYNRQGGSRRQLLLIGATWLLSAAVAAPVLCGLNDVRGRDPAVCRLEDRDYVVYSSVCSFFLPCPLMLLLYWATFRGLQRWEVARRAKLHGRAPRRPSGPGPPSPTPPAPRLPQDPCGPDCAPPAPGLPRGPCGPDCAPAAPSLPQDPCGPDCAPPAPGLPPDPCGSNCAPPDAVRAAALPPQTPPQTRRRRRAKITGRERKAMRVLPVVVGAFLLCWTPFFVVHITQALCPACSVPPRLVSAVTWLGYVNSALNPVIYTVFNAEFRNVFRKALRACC
Assay [6] has as its target Mitogen-activated protein kinase 15 (Homo sapiens) (UniProt Q8TD08). Nature of the assay: MAPK15 SGC Tm panel (DSF). The note with it: Compound concentration 20.0 uM.
Assay [7] concerns the target Zinc finger and BTB domain-containing protein 21 (Homo sapiens) (UniProt Q9ULJ3). The note with it: SUD4, Compound concentration 1.0 uM.
Assay [8] deals with Zinc finger and BTB domain-containing protein 17 (Homo sapiens) (UniProt Q13105). The note with it: SUD4, Compound concentration 1.0 uM.
For assay [9], the target named is Serine/threonine-protein kinase OSR1 (Homo sapiens) (UniProt O95747). In words: OSR1 SGC Tm panel (DSF). The note with it: Compound concentration 20.0 uM.
Sequence of Serine/threonine-protein kinase OSR1 (Homo sapiens) (O95747 2-527 limits assumed): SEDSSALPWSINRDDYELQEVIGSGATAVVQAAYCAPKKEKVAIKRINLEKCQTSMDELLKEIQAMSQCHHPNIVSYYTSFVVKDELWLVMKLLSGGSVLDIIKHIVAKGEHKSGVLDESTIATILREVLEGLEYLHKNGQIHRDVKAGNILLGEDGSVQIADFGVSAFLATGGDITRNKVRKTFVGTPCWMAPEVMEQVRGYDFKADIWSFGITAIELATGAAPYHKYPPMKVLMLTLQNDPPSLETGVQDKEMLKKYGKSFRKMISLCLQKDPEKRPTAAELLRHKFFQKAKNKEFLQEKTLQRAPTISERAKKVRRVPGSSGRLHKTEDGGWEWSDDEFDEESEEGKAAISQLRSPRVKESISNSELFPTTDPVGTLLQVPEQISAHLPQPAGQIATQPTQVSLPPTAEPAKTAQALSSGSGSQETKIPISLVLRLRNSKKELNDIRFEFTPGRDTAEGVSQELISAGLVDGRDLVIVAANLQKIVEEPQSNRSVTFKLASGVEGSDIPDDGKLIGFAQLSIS
Assay [10] addresses Transcription regulator protein BACH2 (Homo sapiens) (UniProt Q9BYV9). The note with it: SUD4, Compound concentration 1.0 uM.
The target of assay [11] is Sigma intracellular receptor 2 (Homo sapiens, UniProt Q5BJF2). The note with it: Compound concentration 10.0 uM.
Sequence of Sigma intracellular receptor 2 (Q5BJF2 whole entry): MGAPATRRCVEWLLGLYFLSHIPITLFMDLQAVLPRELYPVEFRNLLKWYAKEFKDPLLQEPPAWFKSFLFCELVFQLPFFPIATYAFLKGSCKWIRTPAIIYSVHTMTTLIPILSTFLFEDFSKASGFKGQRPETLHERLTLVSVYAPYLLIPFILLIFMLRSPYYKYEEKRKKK
The target in assay [12] is Mitogen-activated protein kinase 8 (Homo sapiens) (UniProt P45983). In words: MAPK8 SGC Tm panel (DSF). The note with it: Compound concentration 20.0 uM.
For assay [13], the target named is Alpha-2C adrenergic receptor (Homo sapiens) (UniProt P18825). To be noted: Compound concentration 10.0 uM.
Sequence of Alpha-2C adrenergic receptor (Homo sapiens) (P18825 whole entry, the tested form may be a part): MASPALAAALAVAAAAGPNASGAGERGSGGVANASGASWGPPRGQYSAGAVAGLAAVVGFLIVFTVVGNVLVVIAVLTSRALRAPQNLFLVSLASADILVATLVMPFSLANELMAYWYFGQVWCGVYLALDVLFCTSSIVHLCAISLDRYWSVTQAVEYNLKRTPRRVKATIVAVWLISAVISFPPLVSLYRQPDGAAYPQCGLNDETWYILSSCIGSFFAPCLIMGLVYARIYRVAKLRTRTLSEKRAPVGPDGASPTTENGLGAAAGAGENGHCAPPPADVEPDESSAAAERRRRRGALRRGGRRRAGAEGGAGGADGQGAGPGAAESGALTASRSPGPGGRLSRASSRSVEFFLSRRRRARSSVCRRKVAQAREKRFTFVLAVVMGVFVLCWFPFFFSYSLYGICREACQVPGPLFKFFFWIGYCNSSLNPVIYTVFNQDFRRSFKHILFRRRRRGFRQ
Assay [14] concerns the target Zinc finger and BTB domain-containing protein 7A (Homo sapiens) (UniProt O95365). The note with it: SUD4, Compound concentration 1.0 uM.
Assay [15] concerns the target T2, Zinc finger and BTB domain-containing protein 40 (Homo sapiens) (UniProt Q9NUA8).
T2 sequence (whole entry): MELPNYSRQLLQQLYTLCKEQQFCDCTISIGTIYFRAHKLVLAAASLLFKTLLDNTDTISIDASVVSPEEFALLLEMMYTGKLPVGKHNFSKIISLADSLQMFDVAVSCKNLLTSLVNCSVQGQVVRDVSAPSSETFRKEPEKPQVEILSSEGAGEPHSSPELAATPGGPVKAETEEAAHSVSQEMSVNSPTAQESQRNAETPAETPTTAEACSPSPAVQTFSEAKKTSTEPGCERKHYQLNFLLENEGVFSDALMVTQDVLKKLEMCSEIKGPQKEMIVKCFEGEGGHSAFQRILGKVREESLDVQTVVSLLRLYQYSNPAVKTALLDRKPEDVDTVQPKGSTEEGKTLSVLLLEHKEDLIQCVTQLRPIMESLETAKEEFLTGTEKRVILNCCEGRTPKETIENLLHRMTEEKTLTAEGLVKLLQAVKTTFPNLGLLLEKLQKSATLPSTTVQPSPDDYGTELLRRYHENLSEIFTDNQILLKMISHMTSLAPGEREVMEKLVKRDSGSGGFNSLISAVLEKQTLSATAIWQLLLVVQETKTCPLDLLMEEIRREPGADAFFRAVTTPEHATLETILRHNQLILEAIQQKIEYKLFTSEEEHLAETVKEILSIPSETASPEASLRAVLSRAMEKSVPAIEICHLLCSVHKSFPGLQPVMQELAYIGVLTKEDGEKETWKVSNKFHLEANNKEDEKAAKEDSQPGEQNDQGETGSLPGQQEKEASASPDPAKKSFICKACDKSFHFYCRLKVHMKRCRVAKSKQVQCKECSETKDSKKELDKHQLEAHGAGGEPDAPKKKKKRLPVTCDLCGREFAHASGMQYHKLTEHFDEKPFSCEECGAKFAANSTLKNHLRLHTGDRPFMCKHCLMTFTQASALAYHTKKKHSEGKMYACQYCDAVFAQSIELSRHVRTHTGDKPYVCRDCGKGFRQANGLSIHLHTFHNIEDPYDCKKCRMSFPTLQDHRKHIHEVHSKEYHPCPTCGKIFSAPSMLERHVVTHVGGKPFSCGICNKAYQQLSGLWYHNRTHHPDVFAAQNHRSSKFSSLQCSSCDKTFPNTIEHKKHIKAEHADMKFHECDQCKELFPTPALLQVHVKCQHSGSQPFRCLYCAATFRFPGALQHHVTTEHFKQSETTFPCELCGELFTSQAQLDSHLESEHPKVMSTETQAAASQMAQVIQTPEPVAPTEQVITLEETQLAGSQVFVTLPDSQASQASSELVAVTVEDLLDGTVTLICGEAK
The note with it: SUD4, Compound concentration 1.0 uM.

Assay [16] addresses Zinc finger and BTB domain-containing protein 43 (Homo sapiens) (UniProt O43298). The note with it: SUD4, Compound concentration 1.0 uM.
In assay [17] the target is Casein kinase II subunit alpha (Homo sapiens) (UniProt P68400). In words: CSNK2A1 SGC Tm panel (DSF). To be noted: Compound concentration 20.0 uM.
Sequence of Casein kinase II subunit alpha (Homo sapiens) (P68400 whole entry, looked up): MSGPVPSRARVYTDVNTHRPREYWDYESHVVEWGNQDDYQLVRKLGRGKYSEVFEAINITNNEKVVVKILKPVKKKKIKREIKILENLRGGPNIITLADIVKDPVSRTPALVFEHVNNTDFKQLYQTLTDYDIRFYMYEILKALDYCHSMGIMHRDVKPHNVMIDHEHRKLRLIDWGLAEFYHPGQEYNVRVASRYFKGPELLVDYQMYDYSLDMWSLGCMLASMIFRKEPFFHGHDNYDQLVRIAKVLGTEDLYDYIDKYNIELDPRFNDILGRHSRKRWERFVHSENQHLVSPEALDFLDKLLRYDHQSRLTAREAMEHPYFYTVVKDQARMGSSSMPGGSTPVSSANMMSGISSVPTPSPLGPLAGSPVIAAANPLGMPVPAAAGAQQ
For assay [18], the target named is Adenosine receptor A1 (Homo sapiens) (UniProt P30542). In words: (§1) GPCRScan assay: inhibition of A1. The arrangement: radioligand conc. used [nm] 5.0, parental cells HEKT. To be noted: Compound concentration 10.0 uM.
Sequence of Adenosine receptor A1 (Homo sapiens) (P30542 whole entry): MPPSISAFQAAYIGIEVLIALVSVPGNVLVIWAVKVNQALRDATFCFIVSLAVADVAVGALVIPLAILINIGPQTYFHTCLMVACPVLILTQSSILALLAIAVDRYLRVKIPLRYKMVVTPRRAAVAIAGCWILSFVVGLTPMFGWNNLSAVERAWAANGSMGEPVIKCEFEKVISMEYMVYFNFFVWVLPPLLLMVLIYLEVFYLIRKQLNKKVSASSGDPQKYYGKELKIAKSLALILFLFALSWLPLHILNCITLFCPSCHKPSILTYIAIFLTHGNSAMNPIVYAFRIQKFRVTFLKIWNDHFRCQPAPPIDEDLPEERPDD
The next assay concerns the target Adenosine receptor A1 (Homo sapiens, UniProt P30542). The description is as §1. Details: radioligand conc. used [nm] 5.0, parental cells HEKT.

Sequence of Adenosine receptor A1 (P30542 whole entry): as above
Sequence of Zinc finger and BTB domain-containing protein 21 (Homo sapiens) (Q9ULJ3 whole entry, the tested form may be a part): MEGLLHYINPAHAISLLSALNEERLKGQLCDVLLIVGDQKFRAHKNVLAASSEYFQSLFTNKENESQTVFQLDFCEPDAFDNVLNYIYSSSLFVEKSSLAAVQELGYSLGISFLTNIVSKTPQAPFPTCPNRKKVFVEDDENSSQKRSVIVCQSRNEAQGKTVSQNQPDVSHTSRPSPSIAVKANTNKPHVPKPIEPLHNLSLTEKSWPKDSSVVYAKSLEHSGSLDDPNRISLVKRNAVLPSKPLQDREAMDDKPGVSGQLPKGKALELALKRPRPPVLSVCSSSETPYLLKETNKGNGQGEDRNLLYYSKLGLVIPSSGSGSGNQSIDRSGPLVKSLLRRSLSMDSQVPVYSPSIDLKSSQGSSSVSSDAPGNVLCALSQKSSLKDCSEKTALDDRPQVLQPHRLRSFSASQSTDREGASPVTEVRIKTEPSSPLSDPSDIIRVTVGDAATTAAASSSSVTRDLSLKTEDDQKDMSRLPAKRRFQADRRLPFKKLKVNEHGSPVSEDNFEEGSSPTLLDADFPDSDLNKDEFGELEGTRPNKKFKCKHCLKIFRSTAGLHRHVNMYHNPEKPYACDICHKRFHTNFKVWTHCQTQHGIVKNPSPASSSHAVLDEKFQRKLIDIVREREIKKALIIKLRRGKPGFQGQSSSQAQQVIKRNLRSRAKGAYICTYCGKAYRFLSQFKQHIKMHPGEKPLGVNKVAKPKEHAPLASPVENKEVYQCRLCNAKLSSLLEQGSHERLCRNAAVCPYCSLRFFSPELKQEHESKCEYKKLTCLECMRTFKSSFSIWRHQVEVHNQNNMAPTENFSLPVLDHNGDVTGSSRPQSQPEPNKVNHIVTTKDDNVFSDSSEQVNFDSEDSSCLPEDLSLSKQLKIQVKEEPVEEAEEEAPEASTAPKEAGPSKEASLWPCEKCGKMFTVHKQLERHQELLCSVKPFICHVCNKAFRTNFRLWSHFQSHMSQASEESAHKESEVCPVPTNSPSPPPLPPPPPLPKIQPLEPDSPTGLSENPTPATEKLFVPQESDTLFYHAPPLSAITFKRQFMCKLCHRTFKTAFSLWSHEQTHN
Sequence of Mitogen-activated protein kinase 15 (Homo sapiens) (Q8TD08 whole entry, the tested form may be a part): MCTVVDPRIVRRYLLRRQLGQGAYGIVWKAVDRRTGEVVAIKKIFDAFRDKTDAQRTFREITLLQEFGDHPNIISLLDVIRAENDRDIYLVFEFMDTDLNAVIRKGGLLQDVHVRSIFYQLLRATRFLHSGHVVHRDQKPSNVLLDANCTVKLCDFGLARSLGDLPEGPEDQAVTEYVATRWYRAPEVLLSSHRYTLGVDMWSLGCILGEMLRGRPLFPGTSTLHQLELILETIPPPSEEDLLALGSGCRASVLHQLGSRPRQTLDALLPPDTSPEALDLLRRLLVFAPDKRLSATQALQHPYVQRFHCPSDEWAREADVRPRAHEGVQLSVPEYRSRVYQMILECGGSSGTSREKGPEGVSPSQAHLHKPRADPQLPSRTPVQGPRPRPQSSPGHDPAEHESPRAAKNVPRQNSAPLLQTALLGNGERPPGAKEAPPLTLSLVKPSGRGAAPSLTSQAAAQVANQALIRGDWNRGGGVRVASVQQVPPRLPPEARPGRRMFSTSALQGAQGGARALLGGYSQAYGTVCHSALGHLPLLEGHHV
Sequence of Zinc finger and BTB domain-containing protein 7A (Homo sapiens) (O95365 whole entry, the tested form may be a part): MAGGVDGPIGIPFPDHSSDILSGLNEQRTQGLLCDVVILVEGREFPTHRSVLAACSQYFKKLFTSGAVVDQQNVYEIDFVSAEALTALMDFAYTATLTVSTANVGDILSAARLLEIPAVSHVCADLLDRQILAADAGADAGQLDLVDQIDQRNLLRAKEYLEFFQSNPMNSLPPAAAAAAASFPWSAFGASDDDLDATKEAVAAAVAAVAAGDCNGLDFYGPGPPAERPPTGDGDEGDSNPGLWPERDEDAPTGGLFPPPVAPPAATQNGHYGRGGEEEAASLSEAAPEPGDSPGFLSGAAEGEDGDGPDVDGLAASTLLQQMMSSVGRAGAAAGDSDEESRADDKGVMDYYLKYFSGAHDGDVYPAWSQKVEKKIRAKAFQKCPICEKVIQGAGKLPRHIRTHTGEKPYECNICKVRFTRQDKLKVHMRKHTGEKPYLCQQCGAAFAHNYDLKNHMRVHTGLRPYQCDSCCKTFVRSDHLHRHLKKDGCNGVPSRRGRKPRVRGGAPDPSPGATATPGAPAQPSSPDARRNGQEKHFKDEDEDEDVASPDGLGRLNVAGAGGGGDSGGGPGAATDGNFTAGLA

For `C[C@@H]1CN(c2ncc(Cl)c(Nc3ccc4c(c3)n(CCC(C)(C)O)c(=O)n4C)n2)C[C@H](C)C1(F)F`, the Tm is 46 °C in assay [1]; 45 °C in assay [3]; 42 °C in assay [4]; 50 °C in [6]; 39 °C in assay [9]; 43 °C in assay [12]. Moreover, the Tm in assay [17] was 44 °C. In addition, the LogFC was 0.00149 in [2]; 0.0189 in assay [7]; -0.0472 in assay [8]; -0.0358 in assay [10]; 0.0336 in [14]; 0.0845 in [15]. In addition, in [16], the LogFC is 0.0389. For the same compound, the inhibition in [5] is 15.2%; in [11], 85.7%; in [13], 15.1%; in assay [18] it was 93.1%. The results for the Ki on Adenosine receptor A1 (read-out: Ki) and on Adenosine receptor A1 (read-out: pKi (converted)) were 1.63 µM and 1.1 µM, respectively.
